IC50 data for 22 molecules are collected here from patent publication US10961231B2, “NTCP inhibitors” (National Institute of Biological Sciences, Beijing, priority 2018, dated 2021).

The first experiment deals with T1, NTCP (Homo sapiens, UniProt Q14973).
T1 sequence (Q14973 1-349): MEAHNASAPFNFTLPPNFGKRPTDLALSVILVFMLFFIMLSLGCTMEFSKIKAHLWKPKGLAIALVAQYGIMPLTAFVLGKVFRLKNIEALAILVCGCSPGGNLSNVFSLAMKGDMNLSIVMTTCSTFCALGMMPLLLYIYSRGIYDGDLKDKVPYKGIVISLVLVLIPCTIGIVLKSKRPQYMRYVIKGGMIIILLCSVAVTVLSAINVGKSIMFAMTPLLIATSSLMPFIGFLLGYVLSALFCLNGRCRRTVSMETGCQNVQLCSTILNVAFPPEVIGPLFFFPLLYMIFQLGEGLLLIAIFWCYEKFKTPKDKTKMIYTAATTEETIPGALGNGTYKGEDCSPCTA
The experiment in a line: [3H]-TCA uptake assay (NTCP inhibition). It is filed as cell-based. To be noted: IC50, given as a range, marked * (asterisk not explained). The gist of the method:
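PTH and HepG2-NTCP cells kept 24 h in PMM to induce NTCP, then exposed 2 h to test compounds or DMSO. Uptake of 1 μM [3H]-taurocholate in Na+ Ringer's buffer (145 mM Na) ran 15 min at 37° C. Cells washed, lysed in 1% Triton X-100, and radioactivity counted by liquid scintillation.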
With `CCC1NC(=O)C(C2OC(SCc3ccccc3)CC2C)N(C)C(=O)C(C(C)C)N(C)C(=O)C(CC(C)C)N(C)C(=O)C(CC(C)C)N(C)C(=O)C(C)NC(=O)C(C)NC(=O)C(CC(C)C)N(C)C(=O)C(C(C)C)NC(=O)C(CC(C)C)N(C)C(=O)CN(C)C1=O` (stereo not shown) [Compound 74A-s], the IC50 – broadly, the concentration needed to halve the response being measured – was 1000 to 100000 nM.
The molecule `CCC1NC(=O)C(C2OC(SCc3cccc(S(=O)(=O)OCC(C)C)c3)CC2C)N(C)C(=O)C(C(C)C)N(C)C(=O)C(CC(C)C)N(C)C(=O)C(CC(C)C)N(C)C(=O)C(C)NC(=O)C(C)NC(=O)C(CC(C)C)N(C)C(=O)C(C(C)C)NC(=O)C(CC(C)C)N(C)C(=O)CN(C)C1=O` (stereo not shown) [Compound 75A-s] yielded a half-inhibitory concentration (IC50) of 1000 to 100000 nM.
Same read-out and setting: in the case of `CCC1NC(=O)C(C2OC(SCc3cccc(S(=O)(=O)NCC(C)C)c3)CC2C)N(C)C(=O)C(C(C)C)N(C)C(=O)C(CC(C)C)N(C)C(=O)C(CC(C)C)N(C)C(=O)C(C)NC(=O)C(C)NC(=O)C(CC(C)C)N(C)C(=O)C(C(C)C)NC(=O)C(CC(C)C)N(C)C(=O)CN(C)C1=O` (stereo not shown) [Compound 76A-s] it was 1000 to 100000 nM; in that of `CCC1NC(=O)C(C2OC(SCc3ccc(-n4cccn4)cc3)CC2C)N(C)C(=O)C(C(C)C)N(C)C(=O)C(CC(C)C)N(C)C(=O)C(CC(C)C)N(C)C(=O)C(C)NC(=O)C(C)NC(=O)C(CC(C)C)N(C)C(=O)C(C(C)C)NC(=O)C(CC(C)C)N(C)C(=O)CN(C)C1=O` (stereo not shown) [Compound 77A-s], 1000 to 100000 nM; in that of `CCC1NC(=O)C(C2OC(SC(C)c3ccccc3)CC2C)N(C)C(=O)C(C(C)C)N(C)C(=O)C(CC(C)C)N(C)C(=O)C(CC(C)C)N(C)C(=O)C(C)NC(=O)C(C)NC(=O)C(CC(C)C)N(C)C(=O)C(C(C)C)NC(=O)C(CC(C)C)N(C)C(=O)CN(C)C1=O` (stereo not shown) [Compound 78A-s], 1000 to 100000 nM.
Turning to `CCC1NC(=O)C(C2OC(SC(c3ccccc3)c3ccccc3)CC2C)N(C)C(=O)C(C(C)C)N(C)C(=O)C(CC(C)C)N(C)C(=O)C(CC(C)C)N(C)C(=O)C(C)NC(=O)C(C)NC(=O)C(CC(C)C)N(C)C(=O)C(C(C)C)NC(=O)C(CC(C)C)N(C)C(=O)CN(C)C1=O` (stereo not shown) [Compound 80A-s], the half-inhibitory concentration (IC50) fell in the range of 1000 to 100000 nM.
`CCC1NC(=O)C(C2OC(SCc3cccc(OC)c3)CC2C)N(C)C(=O)C(C(C)C)N(C)C(=O)C(CC(C)C)N(C)C(=O)C(CC(C)C)N(C)C(=O)C(C)NC(=O)C(C)NC(=O)C(CC(C)C)N(C)C(=O)C(C(C)C)NC(=O)C(CC(C)C)N(C)C(=O)CN(C)C1=O` (stereo not shown) [Compound 81A-s] showed an IC50 of 1000 to 100000 nM.
For the molecule `CCC1NC(=O)C(C2OC(SCc3ccccc3OC)CC2C)N(C)C(=O)C(C(C)C)N(C)C(=O)C(CC(C)C)N(C)C(=O)C(CC(C)C)N(C)C(=O)C(C)NC(=O)C(C)NC(=O)C(CC(C)C)N(C)C(=O)C(C(C)C)NC(=O)C(CC(C)C)N(C)C(=O)CN(C)C1=O` (stereo not shown) [Compound 82A-s], the IC50 lay in the range of 1000 to 100000 nM.
Same read-out and setting: in the case of `CCC1NC(=O)C(C2OC(SCc3ccc(OC)cc3)CC2C)N(C)C(=O)C(C(C)C)N(C)C(=O)C(CC(C)C)N(C)C(=O)C(CC(C)C)N(C)C(=O)C(C)NC(=O)C(C)NC(=O)C(CC(C)C)N(C)C(=O)C(C(C)C)NC(=O)C(CC(C)C)N(C)C(=O)CN(C)C1=O` (stereo not shown) [Compound 83A-s] it was 1000 to 100000 nM; in that of `CCC1NC(=O)C(C2OC(SCc3ccccc3Cl)CC2C)N(C)C(=O)C(C(C)C)N(C)C(=O)C(CC(C)C)N(C)C(=O)C(CC(C)C)N(C)C(=O)C(C)NC(=O)C(C)NC(=O)C(CC(C)C)N(C)C(=O)C(C(C)C)NC(=O)C(CC(C)C)N(C)C(=O)CN(C)C1=O` (stereo not shown) [Compound 84A-s], 1000 to 100000 nM.

Still in this experiment, the particulars now being: IC50, given as a range; assay not given.
`CCC1NC(=O)C(C2OC(OCc3cccc(S(=O)(=O)NCC(C)C)c3)CC2C)N(C)C(=O)C(C(C)C)N(C)C(=O)C(CC(C)C)N(C)C(=O)C(CC(C)C)N(C)C(=O)C(C)NC(=O)C(C)NC(=O)C(CC(C)C)N(C)C(=O)C(C(C)C)NC(=O)C(CC(C)C)N(C)C(=O)CN(C)C1=O` [Compound 76A, [2-((2R,3R)-5-(3-(N-isobutylsulfamoyl)benzyloxy)-3-methyltetrahydrofuran-2-yl)-2-(methylamino)acetic acid]^1-cyclosporin A] gave a 50% inhibitory concentration (IC50) of 1000 to 10000 nM.
On the same count and under the same terms, the same measure for `CCC1NC(=O)C(C2OC(OCc3ccc(-n4cccn4)cc3)CC2C)N(C)C(=O)C(C(C)C)N(C)C(=O)C(CC(C)C)N(C)C(=O)C(CC(C)C)N(C)C(=O)C(C)NC(=O)C(C)NC(=O)C(CC(C)C)N(C)C(=O)C(C(C)C)NC(=O)C(CC(C)C)N(C)C(=O)CN(C)C1=O` [Compound 77A, [2-((2R,3R)-5-(4-(1H-pyrazol-1-yl)benzyloxy)-3-methyltetrahydrofuran-2-yl)-2-(methylamino)acetic acid]^1-cyclosporin A]: 1000 to 10000 nM; for `CCC1NC(=O)C(C2OC(SCc3cccc(Cl)c3)CC2C)N(C)C(=O)C(C(C)C)N(C)C(=O)C(CC(C)C)N(C)C(=O)C(CC(C)C)N(C)C(=O)C(C)NC(=O)C(C)NC(=O)C(CC(C)C)N(C)C(=O)C(C(C)C)NC(=O)C(CC(C)C)N(C)C(=O)CN(C)C1=O` (stereo not shown) [Compound 85A-s]: 1000 to 100000 nM.

Staying with this experiment, now noted: given as a range, marked * (asterisk not explained).
Consider `CCC1NC(=O)C(C2OC(Oc3cc(OCCOC)cc(OCCOC)c3)CC2C)N(C)C(=O)C(C(C)C)N(C)C(=O)C(CC(C)C)N(C)C(=O)C(CC(C)C)N(C)C(=O)C(C)NC(=O)C(C)NC(=O)C(CC(C)C)N(C)C(=O)C(C(C)C)NC(=O)C(CC(C)C)N(C)C(=O)CN(C)C1=O` (stereo not shown) [Compound 73-o], for which the half-inhibitory concentration (IC50) is 1000 to 100000 nM.
Still for that read-out and setting: the same measure for `CCC1NC(=O)C(C2OC(Sc3cc(OCCOC)cc(OCCOC)c3)CC2C)N(C)C(=O)C(C(C)C)N(C)C(=O)C(CC(C)C)N(C)C(=O)C(CC(C)C)N(C)C(=O)C(C)NC(=O)C(C)NC(=O)C(CC(C)C)N(C)C(=O)C(C(C)C)NC(=O)C(CC(C)C)N(C)C(=O)CN(C)C1=O` (stereo not shown) [Compound 73]: 1000 to 100000 nM.

The same experiment, now with this note: given as a range; assay not given.
As to `CCC1NC(=O)C(C2OC(OCc3ccccc3)CC2C)N(C)C(=O)C(C(C)C)N(C)C(=O)C(CC(C)C)N(C)C(=O)C(CC(C)C)N(C)C(=O)C(C)NC(=O)C(C)NC(=O)C(CC(C)C)N(C)C(=O)C(C(C)C)NC(=O)C(CC(C)C)N(C)C(=O)CN(C)C1=O` [Compound 74A, [2-((2R,3R)-5-(benzyloxy)-3-methyltetrahydrofuran-2-yl)-2-(methylamino)acetic acid]^1-cyclosporin A], the half-maximal inhibitory concentration (IC50) lay in the range of 1 to 1000 nM.
On the same count and under the same terms, in the case of `CCC1NC(=O)C(C2OC(OCc3cccc(S(=O)(=O)OCC(C)C)c3)CC2C)N(C)C(=O)C(C(C)C)N(C)C(=O)C(CC(C)C)N(C)C(=O)C(CC(C)C)N(C)C(=O)C(C)NC(=O)C(C)NC(=O)C(CC(C)C)N(C)C(=O)C(C(C)C)NC(=O)C(CC(C)C)N(C)C(=O)CN(C)C1=O` [Compound 75A, [2-((2R,3R)-5-(3-(isobutoxysulfonyl)benzyloxy)-3-methyltetrahydrofuran-2-yl)-2-(methylamino)acetic acid]^1-cyclosporin A] it was 1 to 1000 nM; in that of `CCC1NC(=O)C(C2OC(OC(c3ccccc3)c3ccccc3)CC2C)N(C)C(=O)C(C(C)C)N(C)C(=O)C(CC(C)C)N(C)C(=O)C(CC(C)C)N(C)C(=O)C(C)NC(=O)C(C)NC(=O)C(CC(C)C)N(C)C(=O)C(C(C)C)NC(=O)C(CC(C)C)N(C)C(=O)CN(C)C1=O` [Compound 80A, [2-((2R,3R)-3-methyl-5-(benzhydryloxy)tetrahydrofuran-2-yl)-2-(methylamino)acetic acid]^1-cyclosporin A], 1 to 1000 nM; in that of `CCC1NC(=O)C(C2OC(OCc3cccc(OC)c3)CC2C)N(C)C(=O)C(C(C)C)N(C)C(=O)C(CC(C)C)N(C)C(=O)C(CC(C)C)N(C)C(=O)C(C)NC(=O)C(C)NC(=O)C(CC(C)C)N(C)C(=O)C(C(C)C)NC(=O)C(CC(C)C)N(C)C(=O)CN(C)C1=O` [Compound 81A, [2-((2R,3R)-5-(3-methoxybenzyloxy)-3-methyltetrahydrofuran-2-yl)-2-(methylamino)acetic acid]^1-cyclosporin A], 1 to 1000 nM.
`CCC1NC(=O)C(C2OC(OCc3ccc(OC)cc3)CC2C)N(C)C(=O)C(C(C)C)N(C)C(=O)C(CC(C)C)N(C)C(=O)C(CC(C)C)N(C)C(=O)C(C)NC(=O)C(C)NC(=O)C(CC(C)C)N(C)C(=O)C(C(C)C)NC(=O)C(CC(C)C)N(C)C(=O)CN(C)C1=O` [Compound 83A, [2-((2R,3R)-5-(4-methoxybenzyloxy)-3-methyltetrahydrofuran-2-yl)-2-(methylamino)acetic acid]^1-cyclosporin A] showed an IC50 of 1 to 1000 nM.
With `CCC1NC(=O)C(C2OC(OCc3ccccc3Cl)CC2C)N(C)C(=O)C(C(C)C)N(C)C(=O)C(CC(C)C)N(C)C(=O)C(CC(C)C)N(C)C(=O)C(C)NC(=O)C(C)NC(=O)C(CC(C)C)N(C)C(=O)C(C(C)C)NC(=O)C(CC(C)C)N(C)C(=O)CN(C)C1=O` [Compound 84A, [2-((2R,3R)-5-(2-chlorobenzyloxy)-3-methyltetrahydrofuran-2-yl)-2-(methylamino)acetic acid]^1-cyclosporin A], the concentration for half-maximal inhibition (IC50) lay in the range of 1 to 1000 nM.

The experiment is the same for the next values; noted with them: given as a range; assay not given; read-out: IC50.
`CC[C@@H]1NC(=O)[C@H]([C@@H]2OC(OCc3cccc(Cl)c3)C[C@H]2C)N(C)C(=O)[C@H](C(C)C)N(C)C(=O)[C@H](CC(C)C)N(C)C(=O)[C@H](CC(C)C)N(C)C(=O)[C@@H](C)NC(=O)[C@H](C)NC(=O)[C@H](CC(C)C)N(C)C(=O)[C@H](C(C)C)NC(=O)[C@H](CC(C)C)N(C)C(=O)CN(C)C1=O` (stereo partly drawn) [Compound 85A, [2-((2R,3R)-5-(3-chlorobenzyloxy)-3-methyltetrahydrofuran-2-yl)-2-(methylamino)acetic acid]^1-cyclosporin A]: the IC50 is 1 to 1000 nM.
